Measurements taken from patent US9902702B2, “Spirocycloheptanes as inhibitors of rock” (BRISTOL-MYERS SQUIBB COMPANY, priority 2014, dated 2018).
Where a name gives a salt, the structure may show the parent alone.

molecular target: ROCK2 (Homo sapiens, UniProt O75116); assay: ROCK assay: phosphorylation of FITC peptide substrate, LABCHIP 3000 mobility shift; assay type: biochemical; conditions: 5 μM ATP, 1.5 μM peptide substrate; read-out: ROCK2 Activity (ROCK IC50 range)
In short: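 IC50 values come from curve-fitting percent kinase inhibition across a compound dilution series. The reaction is started with Rho kinase variant in HEPES pH 7.5 buffer with MgCl2, Brij-35 and DTT, with 5 μM ATP, 1.5 μM FITC-labelled peptide and under 2% DMSO. After EDTA quench, product and substrate are separated by microfluidic mobility shift.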

Sequence of ROCK2 (O75116 whole entry, species assumed): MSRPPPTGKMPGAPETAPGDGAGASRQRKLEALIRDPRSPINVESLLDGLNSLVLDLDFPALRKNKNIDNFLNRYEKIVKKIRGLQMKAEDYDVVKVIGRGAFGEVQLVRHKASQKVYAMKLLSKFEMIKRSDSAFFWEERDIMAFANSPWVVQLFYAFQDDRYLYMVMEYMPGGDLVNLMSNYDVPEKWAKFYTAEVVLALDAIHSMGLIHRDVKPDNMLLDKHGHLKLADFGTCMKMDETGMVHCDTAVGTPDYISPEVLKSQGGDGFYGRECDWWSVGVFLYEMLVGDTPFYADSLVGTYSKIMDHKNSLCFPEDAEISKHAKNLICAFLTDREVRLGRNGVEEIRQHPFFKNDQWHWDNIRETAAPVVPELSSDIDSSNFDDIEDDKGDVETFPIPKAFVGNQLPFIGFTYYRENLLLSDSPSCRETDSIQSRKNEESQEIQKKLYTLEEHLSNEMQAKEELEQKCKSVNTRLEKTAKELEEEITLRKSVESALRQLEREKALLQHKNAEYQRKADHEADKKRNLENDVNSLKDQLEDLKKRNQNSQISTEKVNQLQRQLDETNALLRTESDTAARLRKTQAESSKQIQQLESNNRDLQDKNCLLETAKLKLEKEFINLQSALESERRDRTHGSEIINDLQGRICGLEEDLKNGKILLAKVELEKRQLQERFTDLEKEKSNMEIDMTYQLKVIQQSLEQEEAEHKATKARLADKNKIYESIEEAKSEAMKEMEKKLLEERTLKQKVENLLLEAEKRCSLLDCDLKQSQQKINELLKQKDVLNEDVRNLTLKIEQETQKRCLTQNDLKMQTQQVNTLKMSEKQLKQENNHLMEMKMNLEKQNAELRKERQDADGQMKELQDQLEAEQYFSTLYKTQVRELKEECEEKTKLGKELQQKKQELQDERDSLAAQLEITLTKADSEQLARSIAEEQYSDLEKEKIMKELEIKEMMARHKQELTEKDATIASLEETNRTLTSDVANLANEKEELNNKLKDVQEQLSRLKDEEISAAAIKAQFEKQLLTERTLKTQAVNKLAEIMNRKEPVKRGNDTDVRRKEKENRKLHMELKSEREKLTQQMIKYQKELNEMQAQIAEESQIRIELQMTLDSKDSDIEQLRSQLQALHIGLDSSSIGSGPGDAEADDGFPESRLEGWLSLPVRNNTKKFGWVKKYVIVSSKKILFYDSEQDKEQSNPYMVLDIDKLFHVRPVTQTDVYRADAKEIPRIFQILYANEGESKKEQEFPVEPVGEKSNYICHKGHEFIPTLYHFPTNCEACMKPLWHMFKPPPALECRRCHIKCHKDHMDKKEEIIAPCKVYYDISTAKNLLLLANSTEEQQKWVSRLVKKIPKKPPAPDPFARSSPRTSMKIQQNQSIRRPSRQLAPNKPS

IC50 [nM]	SMILES
5.1 to 15	CN(C)CCCc1ccc2c(C(=O)NC3CC4(C3)CC(c3n[nH]c(=O)c5ccccc35)C4)cnn2c1 [Example 193, 6-(3-(dimethylamino)propyl)-N-((aR)-6-(4-oxo-3,4-dihydrophthalazin-1-yl)spiro[3.3]heptan-2-yl)pyrazolo[1,5-a]pyridine-3-carboxamide]
0.2 to 2	O=C(NC1CC2(C1)CC(c1n[nH]c(=O)c3ccccc13)C2)c1cnn2cc(N3CCC(F)(F)C3)ccc12 [Example 90, 6-(3,3-difluoropyrrolidin-1-yl)-N-((aR)-6-(4-oxo-3,4-dihydrophthalazin-1-yl)spiro[3.3]heptan-2-yl)pyrazolo[1,5-a]pyridine-3-carboxamide]
100 to 2100	Cc1cc(NC(=O)C2CC3(C2)CC(c2n[nH]c(=O)c4ccccc24)C3)no1 (stereo not drawn) [Example 49, N-(5-methyl-1,2-oxazol-3-yl)-6-(4-oxo-3,4-dihydrophthalazin-1-yl)spiro[3.3]heptane-2-carboxamide]
2.01 to 5	[H][C@]1(c2n[nH]c(=O)c3ccccc32)C[C@]2(C[C@@H](NC(=O)c3cnc4cc(OC5CCC(F)(F)CC5)ccn34)C2)C1 (stereo partly drawn) [Example 471, 7-((4,4-difluoro-cyclohexyl)oxy)-N-((aR)-6-(4-oxo-3,4-dihydro-phthalazin-1-yl)spiro[3.3]heptan-2-yl)imidazo[1,2-a]pyridine-3-carboxamide, TFA]
15.1 to 100	[H][C@]1(c2n[nH]c(=O)c3ccccc32)C[C@]2(C[C@@H](NC(=O)c3ccc4ccccc4n3)C2)C1 (stereo partly drawn) [Example 330, N-((aR)-6-(4-oxo-3,4-dihydrophthalazin-1-yl)spiro[3.3]heptan-2-yl)quinoline-2-carboxamide]
2.01 to 5	Cc1nc(N2CCC(F)(F)C2)sc1C(=O)NC1CC2(C1)CC(c1n[nH]c(=O)c3ccccc13)C2 [Example 41, 2-(3,3-difluoropyrrolidin-1-yl)-4-methyl-N-[(aR)-6-(4-oxo-3,4-dihydrophthalazin-1-yl)spiro[3.3]heptan-2-yl]-1,3-thiazole-5-carboxamide]
2.01 to 5	COc1ccc2c(c1)c(C(=O)NC1CC3(C1)CC(c1n[nH]c(=O)c4ccccc14)C3)nn2CC(C)(C)O [Example 61, 1-(2-hydroxy-2-methylpropyl)-5-methoxy-N-((aR)-6-(4-oxo-3,4-dihydrophthalazin-1-yl)spiro[3.3]heptan-2-yl)-1H-indazole-3-carboxamide]
0.2 to 2	Cc1nn(C)c(C)c1-c1ccc2c(C(=O)NC3CC4(C3)CC(c3n[nH]c(=O)c5ccccc35)C4)cnn2c1 [Example 221, N-((aR)-6-(4-oxo-3,4-dihydrophthalazin-1-yl)spiro[3.3]heptan-2-yl)-6-(1,3,5-trimethyl-1H-pyrazol-4-yl)pyrazolo[1,5-a]pyridine-3-carboxamide]
2.01 to 5	CC(=O)c1ccc2c(C(=O)N[C@H]3CC4(C3)C[C@H](c3n[nH]c(=O)c5ccccc53)C4)cnn2c1 (stereo partly drawn) [Example 214, 6-acetyl-N-((aR)-6-(4-oxo-3,4-dihydrophthalazin-1-yl)spiro[3.3]heptan-2-yl)pyrazolo[1,5-a]pyridine-3-carboxamide]
2.01 to 5	O=C(NC1CC2(C1)CC(c1n[nH]c(=O)c3ccccc13)C2)c1cnc(N2CCCC2)s1 [Example 70, N-((aR)-6-(4-oxo-3,4-dihydrophthalazin-1-yl)spiro[3.3]heptan-2-yl)-2-(pyrrolidin-1-yl)thiazole-5-carboxamide]
15.1 to 100	[H][C@]1(c2n[nH]c(=O)c3ccccc32)C[C@]2(C[C@@H](NC(=O)c3ccc(OC)nc3)C2)C1 (stereo partly drawn) [Example 341, 6-methoxy-N-((aR)-6-(4-oxo-3,4-dihydrophthalazin-1-yl)spiro[3.3]heptan-2-yl)nicotinamide]
0.2 to 2	O=C(NC1CC2(C1)CC(c1n[nH]c(=O)c3ccccc13)C2)c1cnn2cc(-c3cn[nH]c3)ccc12 (stereo not drawn) [Example 174, N-((αR)-6-(4-oxo-3,4-dihydrophthalazin-1-yl)spiro[3.3]heptan-2-yl)-6-(1H-pyrazol-4-yl)pyrazolo[1,5-α]pyridine-3-carboxamide]
2.01 to 5	O=C(NC1CC2(C1)CC(c1n[nH]c(=O)c3ccccc13)C2)N1CCc2cc(-c3cnn(C4CCOC4)c3)ccc21 [Example 243, N-((aR)-6-(4-oxo-3,4-dihydrophthalazin-1-yl)spiro[3.3]heptan-2-yl)-5-(1-(tetrahydrofuran-3-yl)-1H-pyrazol-4-yl)indoline-1-carboxamide]
5.1 to 15	[H][C@]1(c2n[nH]c(=O)c3ccccc32)C[C@]2(C[C@@H](NC(=O)c3ccc(-c4cnn(C)c4)cc3)C2)C1 (stereo partly drawn) [Example 451, 4-(1-methyl-1H-pyrazol-4-yl)-N-((aR)-6-(4-oxo-3,4-dihydrophthalazin-1-yl)spiro[3.3]heptan-2-yl)benzamide]
2.01 to 5	O=C(NC1CC2(C1)CC(c1n[nH]c(=O)c3ccccc13)C2)c1cnn2ccc(OCCN3CCOCC3)cc12 [Example 73, 5-(2-morpholinoethoxy)-N-((aR)-6-(4-oxo-3,4-dihydrophthalazin-1-yl)spiro[3.3]heptan-2-yl)pyrazolo[1,5-a]pyridine-3-carboxamide]
5.1 to 15	O=C(NC1CC2(C1)CC(c1n[nH]c(=O)c3ccccc13)C2)c1cnn2cc(CCCO)ccc12 [Example 195, 6-(3-hydroxypropyl)-N-((aR)-6-(4-oxo-3,4-dihydrophthalazin-1-yl)spiro[3.3]heptan-2-yl)pyrazolo[1,5-a]pyridine-3-carboxamide]
2.01 to 5	CN(C)CCOc1ccc2c(C(=O)NC3CC4(C3)CC(c3n[nH]c(=O)c5ccccc35)C4)cnn2c1 [Example 183, 6-(2-(dimethylamino)ethoxy)-N-((aR)-6-(4-oxo-3,4-dihydrophthalazin-1-yl)spiro[3.3]heptan-2-yl)pyrazolo[1,5-a]pyridine-3-carboxamide]
2.01 to 5	[H][C@]1(c2n[nH]c(=O)c3ccccc32)C[C@]2(C[C@@H](NC(=O)c3ccc(-c4cnn(C)c4)c(OC)c3)C2)C1 (stereo partly drawn) [Example 422, 3-methoxy-4-(1-methyl-1H-pyrazol-4-yl)-N-((aR)-6-(4-oxo-3,4-dihydrophthalazin-1-yl)spiro[3.3]heptan-2-yl)benzamide]
5.1 to 15	Cn1nc(C(=O)NC2CC3(C2)CC(c2n[nH]c(=O)n4cccc24)C3)c2ccccc21 (stereo not drawn) [Example 280, 1-methyl-N-(6-(4-oxo-3,4-dihydropyrrolo[1,2-d][1,2,4]triazin-1-yl)spiro[3.3]heptan-2-yl)-1H-indazole-3-carboxamide, TFA]
5.1 to 15	O=c1[nH]nc([C@H]2CC3(C[C@H](Nc4nncc5ccccc45)C3)C2)c2ccccc12 (stereo partly drawn) [Example 45, 4-((aR)-6-(Phthalazin-1-ylamino)spiro[3.3]heptan-2-yl)phthalazin-1(2H)-one(2H)-one]
15.1 to 100	[H][C@]1(c2n[nH]c(=O)c3ccccc32)C[C@]2(C[C@@H](NC(=O)c3cccc(-n4ccnc4)c3)C2)C1 (stereo partly drawn) [Example 352, 3-(1H-imidazol-1-yl)-N-((aR)-6-(4-oxo-3,4-dihydrophthalazin-1-yl)spiro[3.3]heptan-2-yl)benzamide]
2.01 to 5	COc1ccc(-n2nnc(C(=O)NC3CC4(C3)CC(c3n[nH]c(=O)c5ccccc35)C4)c2C)cc1 [Example 115, 1-(4-methoxyphenyl)-5-methyl-N-((aR)-6-(4-oxo-3,4-dihydrophthalazin-1-yl)spiro[3.3]heptan-2-yl)-1H-1,2,3-triazole-4-carboxamide]
15.1 to 100	O=C(NC1CC2(C1)CC(c1n[nH]c(=O)c3ccccc13)C2)c1cnn2ncccc12 [Example 96, N-((aR)-6-(4-oxo-3,4-dihydrophthalazin-1-yl)spiro[3.3]heptan-2-yl)pyrazolo[1,5-b]pyridazine-3-carboxamide]
2.01 to 5	COc1cccc(-c2ccc3c(C(=O)NC4CC5(C4)CC(c4n[nH]c(=O)c6ccccc46)C5)nn(CC(C)(C)O)c3c2)n1 (stereo not drawn) [Example 150, 1-(2-hydroxy-2-methylpropyl)-6-(6-methoxypyridin-2-yl)-N-((αR)-6-(4-oxo-3,4-dihydrophthalazin-1-yl)spiro[3.3]heptan-2-yl)-1H-indazole-3-carboxamide]
0.2 to 2	N#Cc1c(OCc2ccccc2)ccc2c(C(=O)NC3CC4(C3)CC(c3n[nH]c(=O)c5ccccc35)C4)cnn12 (stereo not drawn) [Example 127, 6-(benzyloxy)-7-cyano-N-((αR)-6-(4-oxo-3,4-dihydrophthalazin-1-yl)spiro[3.3]heptan-2-yl)pyrazolo[1,5-α]pyridine-3-carboxamide]
2.01 to 5	Cn1cc(-c2ccc3c(C(=O)NC4CC5(C4)CC(c4n[nH]c(=O)c6ccccc46)C5)nn(CC(C)(C)O)c3c2)nn1 (stereo not drawn) [Example 154, 1-(2-hydroxy-2-methylpropyl)-6-(1-methyl-1H-1,2,3-triazol-4-yl)-N-((αR)-6-(4-oxo-3,4-dihydrophthalazin-1-yl)spiro[3.3]heptan-2-yl)-1H-indazole-3-carboxamide]
15.1 to 100	[H][C@]1(c2n[nH]c(=O)c3ccccc32)C[C@]2(C[C@@H](NC(=O)c3ccc(-c4cnn(C)c4)cn3)C2)C1 (stereo partly drawn) [Example 450, 5-(1-methyl-1H-pyrazol-4-yl)-N-((aR)-6-(4-oxo-3,4-dihydrophthalazin-1-yl)spiro[3.3]heptan-2-yl)picolinamide]
100 to 2100	[H][C@]1(c2n[nH]c(=O)c3ccccc32)C[C@]2(C[C@@H](NC(=O)C3CCc4ccccc43)C2)C1 (stereo partly drawn) [Example 321, N-((aR)-6-(4-oxo-3,4-dihydrophthalazin-1-yl)spiro[3.3]heptan-2-yl)-2,3-dihydro-1H-indene-1-carboxamide]
15.1 to 100	O=C(NC1CC2(C1)CC(c1n[nH]c(=O)c3ccccc13)C2)N1CC(CN2CCOCC2)c2ccccc21 [Example 261, 3-(morpholinomethyl)-N-((aR)-6-(4-oxo-3,4-dihydrophthalazin-1-yl)spiro[3.3]heptan-2-yl)indoline-1-carboxamide]
100 to 2100	O=C(C1CC2(C1)CC(c1n[nH]c(=O)c3ccccc13)C2)N1Cc2ccccc2C1 (stereo not drawn) [Example 47, 4-[6-(2,3-dihydro-1H-isoindole-2-carbonyl)spiro[3.3]heptan-2-yl]-1,2-dihydrophthalazin-1-one]
